# According to patent US8444858B2, “Control of development of biofilms in industrial process water” (A.Y. Laboratories Ltd., priority 2001, dated 2013):
# How the values were obtained:
# [1] = De-inking plant field trial, residual H2O2, residual biofilm inhibiting substance and H2O2 consumption
# Experimental: A de-inking system had been using 7-10 kg H2O2 per ton of waste paper.
# The reaction pH was Maintained at 9.8-10.0. The Production process was controlled to ensure synchronous metering of the two chemicals, continuous mixing at the predetermined molar ratio and reproducible production of a stable biofilm inhibiting substance stock solution for the duration of the trial and longer. […] After 850 minutes the dosing rate was reduced to 85 g/ton expressed as total Cl2 by feeding the biofilm inhibiting substance semi-continuously. Various parameters were monitored during start-up of the trial: Residual biofilm inhibiting substance was measured (using a Hach pocket colorimeter, total Cl2, based on the DPD method adapted from Standard Methods for Examination of Waste and Waste Water). […] When necessary, samples were diluted with DI water.
# biofilm [2] = assay: Waste water fouling control in a 7 km pipe, Hazen-Williams coefficient; details: NaOCl at a level of up to 50 mg/l (calculated as Cl2)
# Experimental: Treated wastewater was piped from a wastewater treatment plant to a location 7 kilometers away.
# (The Hazen-Williams coefficient is used to express water flow through industrial pipes. It is calculated using the formula
# [formula] wherein P is the friction pressure drop expressed in pounds per square inch per 1000 feet of pipe length, B is the flow rate in barrels per hour, s is the specific gravity of the liquid, C=a friction factor (the Hazen-Williams coefficient), and d is the internal diameter of the pipe in inches. P and B are measured for a given pipe, s and d are treated as constants, and C is calculated. The results are presented as the Hazen-Williams coefficient.
# Waste water (up to 10 m^3/h) was used to appropriately dilute both chemicals. An on-line pH meter controlled the production process and the hypochlorite feeding rate to ensure the production of a stable biofilm inhibiting substance. The biofilm inhibiting substance was injected into the treated waste pipe as it was produced. Concentration of the biofilm inhibiting substance stock solution was 3000-4000 ppm; the pH was maintained at 9.5-10.
# catalase (Merck) = assay: Inactivation of catalase, residual H2O2 laboratory test; assay type: biochemical; details: for Residual H2O2 concentration, % of 3.5% g/l: catalase 26 units/ml
# Experimental: Freshly prepared biofilm inhibiting substance was added to the appropriate flasks containing diluted catalase at a pre-defined feed rate. The contents of the containers were mixed for 60 minutes at room temperature prior to addition of H2O2 (to a final H2O2 concentration of 3.5 g/l). After addition of the H2O2, the mixture was allowed to mix for 30 minutes at room temperature, at which point H2O2 residues were measured in each flask in accordance with the Dr. Lange Cuvette Test LCW 058, measured with LASA 20 (based on Jander/Blasius: Lehrbach der Analytischen and Praparative Anorganischen Chemie, as described in the Handbook of Photometrical Operation Analysis (October 1997)).
# Sodium hypochlorite was diluted in DI water to a final concentration of 6000 ppm expressed as total chlorine. Ammonium bromide solution (equimolar to 1.1 mole of the diluted sodium hypochlorite solution, 10% excess on a molar basis) and ammonium chloride solution (equimolar to 1.1 mole of the diluted hypochlorite solution, 10% excess on a molar basis) were prepared. The diluted hypochlorite (50 ml) was added dropwise to 50 ml of the appropriate ammonium salt while the pH was constantly measured. The biofilm inhibiting substance concentration in the produced stock solution was immediately measured and the biofilm inhibiting substance at the appropriate feed level was immediately added to the test flasks.
# biofilm [3] = assay: Pilot plant wastewater pipes, difference in Hazen-Williams coefficient treated vs control pipe; details: single 3 h treatment on day 1 at 10 ppm as total chlorine
# Experimental: Treated wastewater was pumped through several pipes of 10 m length and 4 inches inner diameter in a pilot plant. […] Pressure drop through each pipe was monitored on-line, and average HW coefficients were calculated.
# The biofilm inhibiting substance in this example was produced as follows, using a small feeding system was built specifically for this trial. […] The concentration of the biofilm inhibiting substance pre-injection solution was ˜3600 ppm and the pH was 9.2-9.6. […]
# [4] = test system: mixed culture of slime-forming-bacteria which had been isolated from a paper machine; assay: Formation of biofilm on stainless steel coupons in a model system (viable counts in medium and on coupons); assay type: cell-based
# Experimental: Formation of biofilm on stainless steel coupons in the presence or absence of an oxidizing biocide or a biofilm inhibiting substance was evaluated in the laboratory. The test system consisted of (a) three closed flasks each containing 20 L nutrient-rich medium (diluted three-fold from its recommended use concentration), (b) three closed cells containing stainless steel coupons hanging freely, and (c) three identical circulation pumps, each pump connected via plastic pipes to one of the flasks and to one of the cells. The system was placed in a thermostatic room at 35° C.
# An innoculum containing a mixed culture of slime-forming-bacteria which had been isolated from a paper machine was added to each of the flasks. An oxidizer containing a 5 ppm mixture (expressed as total Cl2) of bromochlorodimethylhydantoin (an oxidizing biocide which is a source of HOBr and HOCl) (hereinafter “mixed halogens”) was added to the first flask once a day for the duration of the trial (4 days). […] The third flask served as a control for the two flasks treated with the oxidizing biocide or biofilm inhibiting substances. […] A diluted solution of sodium hypochlorite in deionized (DI) water (˜8000 ppm as total chlorine) was fed with one pump; a diluted solution of ammonium bromide (12500 ppm) was fed with the second pump. The two diluted solutions were synchronously mixed in a short glass pipe to form a pre-injection solution of biofilm inhibiting substance, using a pH meter to control and check the stability of the biofilm inhibiting substance formed. The biofilm inhibiting substance was fed to the test system immediately as it was produced.
# On days 2 and 4, each closed cell was opened and 2 coupons were aseptically removed from each cell. At the same time samples of the circulating medium were taken as well. Sampling was conducted after feeding the daily slug dose of biocide.
# Each sample of medium was serially 10-fold diluted in sterile saline solution and plated in molten agar. Each coupon was thoroughly rinsed to remove any adhered particles, aseptically scraped, and the material removed by scraping was quantitatively dispersed in saline solution, vortexed, serially 10-fold diluted and plated in molten agar. Viable counts of microorganisms were taken after 48 h of incubation at 35° C. Viable counts of cells in the medium are presented as colony forming units (cfu) per ml; viable counts on the coupon surfaces are presented as cfu/cm^2.
structure (smiles),measurement,setting,value
"O=CCCCC=O [glutaraldehyde, reference compound]",average H2O2 consumption rate,"[1]; parallel de-inking system at the same plant, commercial chemical formulation containing glutaraldehyde",~4 kg H2O2/ton of waste paper
same,control of the enzymatic degradation of H2O2,[1]; previous attempts on the trial de-inking system,did not yield cost-effective results
"[Na+].[O-]Cl [NaOCl, reference compound]",improving water conductivity in the pipes,biofilm [2],ineffective
"NCl [Chloramine, monochloroamine, reference compound]",oxidation of H2O2 by the substance,catalase (Merck),do not oxidize H2O2
same,"Residual H2O2 concentration, % of 3.5% g/l",catalase (Merck); BIS 6.7 ppm as total chlorine,6.8 % of 3.5% g/l
same,"Residual H2O2 concentration, % of 3.5% g/l",catalase (Merck); BIS 58 ppm as total chlorine,97.1 % of 3.5% g/l
same,"Residual H2O2 concentration, % of 3.5% g/l",catalase (Merck); BIS 128 ppm as total chlorine,99.4 % of 3.5% g/l
same,HW Diff. treated pipe - Control,biofilm [3]; day 1,13.0
same,HW Diff. treated pipe - Control,biofilm [3]; day 2,10.8
same,HW Diff. treated pipe - Control,biofilm [3]; day 3,10.7
same,HW Diff. treated pipe - Control,biofilm [3]; day 4,15.0
same,HW Diff. treated pipe - Control,biofilm [3]; day 5,15.2
same,HW Diff. treated pipe - Control,biofilm [3]; day 6,15.15
same,HW Diff. treated pipe - Control,biofilm [3]; day 7,14.6
same,HW Diff. treated pipe - Control,biofilm [3]; day 8,12.9
same,HW Diff. treated pipe - Control,biofilm [3]; day 9,13.0
same,HW Diff. treated pipe - Control,biofilm [3]; day 10,11.5
same,HW Diff. treated pipe - Control,biofilm [3]; day 11,9.5
same,HW Diff. treated pipe - Control,biofilm [3]; day 12,8.6
same,HW Diff. treated pipe - Control,biofilm [3]; day 13,7.0
same,HW Diff. treated pipe - Control,biofilm [3]; day 14,6.2
same,HW Diff. treated pipe - Control,biofilm [3]; day 15,4.4
same,HW Diff. treated pipe - Control,biofilm [3]; day 16,2.4
same,HW Diff. treated pipe - Control,biofilm [3]; day 17,0.8
same,HW Diff. treated pipe - Control,biofilm [3]; day 18,0.7
"CC1(C)C(=O)N(Cl)C(=O)N1Br [Mixed Halogens, bromochlorodimethylhydantoin, reference compound]",increase in the viable count of biofilm bacteria compared to day 2,[4]; coupons after 4 days,3 fold
same,reduction in viable count of planktonic microorganisms,[4]; medium sample after four days,~10 fold
same,"Viable Counts After 2 Days, medium","[4]; planktonic cells in circulating medium, day 2, daily slug dose (Mixed Halogens 5 ppm, Fuzzicide BAC […] expressed as Cl2), 35° C.",9 × 10^6 cfu/ml
same,"Viable Counts After 4 Days, medium","[4]; planktonic cells in circulating medium, day 4, daily slug dose (Mixed Halogens 5 ppm, Fuzzicide BAC […] expressed as Cl2)",1 × 10^6 cfu/ml
same,"Viable Counts After 2 Days, coupon surfaces","[4]; stainless steel coupons, day 2, daily slug dose (Mixed Halogens 5 ppm, Fuzzicide BAC […] expressed as Cl2)",27 cfu/cm^2
same,"Viable Counts After 4 Days, coupon surfaces","[4]; stainless steel coupons, day 4, daily slug dose (Mixed Halogens 5 ppm, Fuzzicide BAC […] expressed as Cl2)",95 Cfu/cm^2
